Results on three compounds are retold here after patent publication US20260232758A1, “Low Cost Efficient Intracellular Delivery of Proteins and Nucleic Acids via Hydrophobic Ion Pairing” (Georgia Tech Research Corporation, priority 2023, published 2026).

For data set [1] the following is noted: cited from earlier work.
The next data set concerns red blood cells. Briefly: Hemolytic activity assay (hemoglobin release from red blood cells). The class given is cell-based. As to the method:
FIG. 7 provides hemolytic activity for Cytochrome C, OA, SD, HIP CytC OA, and HIP CytC SD at 37° C. and 4° C. to show the influence of membrane stiffness on membrane interaction, in accordance with some embodiments of the present disclosure. 20 μM CytC was given to each group and the concentration of counterion given was consistent with the charge ratios used for delivery experiments. Washed red blood cells were diluted to 0.5% v/v in PBS and 1% v/v Triton X-100 was used as the positive control.
Washed red blood cells (RBC's) were diluted to a 5% v/v concentration in PBS. 100 μL of nanoparticles or treatment were incubated with 10 μL RBC's at 37° C. for 1 hour in a 96 well plate. After incubation with HIP treatment groups, the microplate reader was used to measure released hemoglobin from membrane disruption using 541 nm and subtracting background at 561 nm, then normalizing hemolytic activity to 5% Triton X-100. For imaging RBC's and NIH3T3/eGFP cells, an epifluorescent microscope (Zeiss Axio Observer Z1) with an 40× lens. […]

Data set [2] is described as follows: Dynamic light scattering: z-average size and polydispersity of HIP complexes. It counts as physicochemical. To be noted: DLS. Here is the method: Size and zeta potential were measured using dynamic light scattering (DLS) using Malvern Instruments Zetasizer NanoZS intensity mode with a 4 mW He—Ne laser with 633 nm wavelength to detect backscattering) (173° using 1× for DLS or 0.1× PBS for zeta potential at pH 7.4 solvent conditions and protein material selection. Z-average values were used for HIP complex size. Electrophoretic mobility was converted to zeta potential using the Smoluchowski approximation. Imaging of solutions was performed using an epifluorescence microscope (Zeiss Axio Observer Z1) using a 100× oil immersion lens. Transmission electron microscopy (TEM) grids were prepared using 10 μL sample on copper grids, letting the sample adhere for 5 minutes, washing in water for 30 seconds, staining with 1% phosphotungstic acid for 10 seconds, washing again for 30 seconds, and drying overnight. A JEOL 100 CX-II TEM was utilized to visualize samples.

By Log P is commonly meant the decadic logarithm of the partition coefficient of the neutral form, usually between octanol and water. As to `c1ccc(CCNCc2ccccc2)cc1` [benethamine, N-benzyl-2-phenylthanamine], the “Log P” value in data set [1] is on record as 3.6.
On to `CCCCC(CC)COC(=O)CC(C(=O)OCC(CC)CCCC)S(=O)(=O)[O-].[Na+]` (stereo not drawn) [sodium docusate, reference compound], for which the “hemolytic activity at reduced temperature” value with red blood cells (4° C. compared with 37° C.) was “remained high”. Moreover, the “Log P” value in data set [1] was 5.2.
“CytC: 12.4 kDa positively charged protein; induces apoptosis upon delivery to the mitochondrial membrane”: the relative hemolytic activity entry with red blood cells (37° C., same concentration as in HIP CytC complexes) is given as “greater than 100%”. Further, the “polydispersity index (PDI)” value in data set [2] turned out to be 0.542±0.17. The compound also returned a z-average hydrodynamic diameter in data set [2] (1× PBS pH 7.4) of 729±460 nm.
